Experimental data published in PMC5814268, “Antitumor activity of HPA3P through RIPK3-dependent regulated necrotic cell death in colon cancer” (Oncotarget, 2018).

Tests used:
Type in all cases: cell-based, human
colon cancer cell lines = assay: MTT assay, cell viability in colon cancer cell lines; conditions: comparison of HPA3P with anticancer drugs
Procedure: (§1) The cells were plated in 96-well plates at a density of 2 × 10^4 cells per well. After incubating overnight, the cells were treated with HPA3, HPA3P, HPA3P2, oxaliplatin, and 5-FU at various concentrations. After the cells had incubated for 6 h or 24 h, the culture medium was replaced with fresh medium. Twenty microlitres of a 5 mg/ml stock solution of 3-(4,5-dimetylthiazol-2-yl)-2,5-diphenyltetrazolium bromide (Sigma Aldrich) was added to each well, and the cells were incubated for 1 h at 37°C in a humidified atmosphere of 5% CO2. After removal of the supernatant, 100 μl of DMSO was added to each well. The plates were subsequently incubated on a horizontal shaker for 20 min at room temperature, and the optical density was measured at an absorbance of 570 nm using a microplate reader (SPECTRA MAX PLUS, Molecular Devices, CA, USA).

RIPK3 = RIPK3 expression, western blot in HCT116 p53+/+ cells; conditions: 3 μM GSK΄872 pretreatment, Figure 5C
Procedure: Figure 5 Low concentrations of HPA3P induce RIPK3-dependent necroptosis in HCT116 p53^+/+ cells (A) HCT116 p53^+/+ cells were treated with HPA3P for 6 h. The cell lysates were analysed for RIPK1 and RIPK3 expression by western blotting. The cells were pretreated with 30 μM Nec-1s (B) or 3 μM GSK΄872 (C) for 2 h and (D) transfected with negative-control (scramble), RIPK1, RIPK3, and MLKL siRNA for 24 h. The cells were subsequently treated with HPA3P. HPA3P-induced cytotoxicity was measured by MTT assay. (B–D) The cells were treated with Nec-1s or GSK΄872, and transfected with siRNA for 24 h. The cell lysates were analysed by western blot analysis. (E) The cells were treated with 3 μM GSK΄872 for 2 h and subsequently treated with 30 μM HPA3P for 6 h. The cells were stained with PI for flow cytometric analysis. […] RIPK3 expression was analysed by western blotting. […] Cell viability was measured by MTT assay. ^*p < 0.05, ^**p < 0.01 indicate a significant difference between the indicated groups. […] (H) The colon cancer cell lysates used in this study were analysed by western blotting. […]
The cells were plated in 6-well plates at a density of 1 × 10^6 cells per well. […] After incubating for 6 h or 24 h, the cells were scraped, and the proteins were quantified by the Bradford method. […] The reaction was detected using a Clarity™ Western ECL Substrate (BioRad, CA, USA). […]

HCT116 p53+/+ cells [1] = assay: MTT assay, HCT116 p53+/+; conditions: for restoration of cell viability in HPA3P-treated cells: pretreated with 30 μM Nec-1s or 3 μM GSK΄872 for 2 h, then HPA3P, Figure 5B-5C
Procedure: The cell lysates were analysed for RIPK1 and RIPK3 expression by western blotting. […] The cells were subsequently treated with HPA3P. HPA3P-induced cytotoxicity was measured by MTT assay. […] The cell lysates were analysed by western blot analysis. […] The cells were stained with PI for flow cytometric analysis. (F) The cells were treated with 30 μM HPA3P for the indicated times. RIPK3 expression was analysed by western blotting. […] Cell viability was measured by MTT assay. ^*p < 0.05, ^**p < 0.01 indicate a significant difference between the indicated groups. NS, not significant. (H) The colon cancer cell lysates used in this study were analysed by western blotting. (I) Schematic diagram of HPA3P-induced necroptosis.
as §1

HCT116 p53+/+ cells [2] = assay: PI staining analysed by flow cytometry, HCT116 p53+/+; conditions: 3 μM GSK΄872 for 2 h and/or 30 μM HPA3P for 6 h, Figure 5E
Procedure: Figure 3 HPA3P-induced necrosis and morphological changes in human colon cancer cell lines All cell lines were treated with HPA3P for 30 min and then stained with Hoechst 33342/PI or PI alone. (A) Pictures of Hoechst 33342/PI-stained cells were taken using an Olympus IX71 fluorescence microscope (magnification LCAch N 20X). (B) PI-stained cells were analysed by flow cytometry. (C) Morphological changes in colon cancer cells treated with HPA3P for 5 min were observed using an Olympus IX71 light microscope (magnification LUCPlaFL N 40X). The black arrows indicate membrane blebs. […] Morphological changes were observed under an Olympus IX71 fluorescence microscope (magnification LUCPlaFL N 40X). […]
Figure 5 Low concentrations of HPA3P induce RIPK3-dependent necroptosis in HCT116 p53^+/+ cells (A) HCT116 p53^+/+ cells were treated with HPA3P for 6 h. The cell lysates were analysed for RIPK1 and RIPK3 expression by western blotting. […] HPA3P-induced cytotoxicity was measured by MTT assay. […] The cell lysates were analysed by western blot analysis. […] RIPK3 expression was analysed by western blotting. […] Cell viability was measured by MTT assay. ^*p < 0.05, ^**p < 0.01 indicate a significant difference between the indicated groups. […] (H) The colon cancer cell lysates used in this study were analysed by western blotting. […]

LoVo cells = assay: MTT assay, LoVo; conditions: 24 h, Figure 4E
Procedure: as §1

SW480 cells = assay: MTT assay, SW480; conditions: SW480, 24 h, Figure 4E
Procedure: as §1

HT-29 cells = assay: MTT assay, HT-29; conditions: HT-29, 24 h, Figure 4E
Procedure: as §1

[3] = test system: cleaved-caspase 3 and cleaved-PARP; assay: Western blot for apoptosis markers in colon cancer cell lines; conditions: whole-cell lysates, 24 h, staurosporine as positive control, Figure 1C
Procedure: The cells were plated in 6-well plates at a density of 1 × 10^6 cells per well. After incubating overnight, the cells were treated with HPA3P at the indicated concentration. After incubating for 6 h or 24 h, the cells were scraped, and the proteins were quantified by the Bradford method. The proteins were resolved on SDS-PAGE and transferred to PVDF membranes (Millipore, Bedford, USA). The blots were blocked with TBST containing 5% skim milk for 1 h, after which the membranes were incubated overnight at 4°C with primary antibodies against cleaved caspase-3 (#9664), PARP (#9542, Cell Signaling Technology, MA, USA), HMGB1 (ab18256, Abcam, Cambridge, UK), and GAPDH (SC-25778, Santa Cruz, CA, USA). The blots were then washed with TBST buffer and incubated with a secondary horseradish peroxidase-conjugated antibody (Santa Cruz, CA, USA). The reaction was detected using a Clarity™ Western ECL Substrate (BioRad, CA, USA).

O=c1[nH]cc(F)c(=O)[nH]1 [5-FU]
cell viability (colon cancer cell lines; 6 h, Figure 4D): no effect on cell viability
cell viability (colon cancer cell lines; 24 h, Figure 4E): no effect on cell viability

CC(C)S(=O)(=O)c1ccc2nccc(Nc3ccc4scnc4c3)c2c1 [GSK΄872]
effect on HPA3P-induced increases in RIPK3 expression (RIPK3): inhibited
protective effect on HPA3P-mediated cytotoxicity (HCT116 p53+/+ cells [1]; pretreated with 3 μM GSK΄872 for 2 h, then HPA3P for 24 h, Figure 5G): inhibited HPA3P-induced cytotoxicity
restoration of cell viability in HPA3P-treated cells (HCT116 p53+/+ cells [1]): restored cell viability
PI staining, gate P1 (HCT116 p53+/+ cells [2]): 91.47%
PI staining, gate P2 (HCT116 p53+/+ cells [2]): 7.34%

CN1C(=O)NC(Cc2c[nH]c3c(Cl)cccc23)C1=O (centres unmarked) [Nec-1s]
restoration of cell viability in HPA3P-treated cells (HCT116 p53+/+ cells [1]): did not restore cell viability

O=C1[O][Pt]2([NH][C@@H]3CCCC[C@H]3[NH]2)[O]C1=O [oxaliplatin, Oxaliplatin]
cell viability (LoVo cells): significant decrease in cell viability
cell viability (SW480 cells): significant decrease in cell viability
cell viability (HT-29 cells): reduced cell viability only slightly
cell viability (colon cancer cell lines; 6 h, Figure 4D): no effect on cell viability
cell viability (HCT116 p53+/+ cells [1]; 24 h, Figure 4E): significant decrease in cell viability

CN[C@@H]1C[C@H]2O[C@@](C)([C@@H]1OC)n1c3ccccc3c3c4c(c5c6ccccc6n2c5c31)C(=O)NC4 [staurosporine]
cleaved-caspase 3 and cleaved-PARP [3]: detected
